Data from the supplement of paper PMC10307832.

How the values were obtained:
Test in all cases: relative viability (nuclei count vs DMSO), 5 days (fraction); higher = more cells survive
[1] = compound: CN(C)CC1=CC(=CC=C1)N=C(C2=CC=CC=C2)C3=C(NC4=C3C=CC(=C4)C(=O)N(C)C)O + CS(=O)(=O)N1CCN(Cc2cc3nc(-c4cccc5[nH]ncc45)nc(N4CCOCC4)c3s2)CC1 [Pictilisib] (partner 1 µM)
How it was run: (§1)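 Relative viability divides the nuclei count in treated wells by that in vehicle wells. Lung cancer cell lines were seeded in 1536-well plates, dosed by pin tool the next day, and fixed and stained after 5 days in one step with final 0.05% Triton X-100, 1% formaldehyde and 1 ug/ml Hoechst. Dosing was a single drug or a fixed anchor-drug dose plus five library-drug doses (not always all listed) in √10 steps, and values are medians of duplicate plates imaged at 4×.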

[2] = compound: CN(C)CC1=CC(=CC=C1)N=C(C2=CC=CC=C2)C3=C(NC4=C3C=CC(=C4)C(=O)N(C)C)O + NC(=O)Nc1cc(-c2cccc(F)c2)sc1C(=O)N[C@H]1CCCNC1 [AZD7762] (partner 0.2 µM)
How it was run: as §1

[3] = compound: CN(C)CC1=CC(=CC=C1)N=C(C2=CC=CC=C2)C3=C(NC4=C3C=CC(=C4)C(=O)N(C)C)O + Cc1nc(NC(=O)N2CCC[C@H]2C(N)=O)sc1-c1ccnc(C(C)(C)C(F)(F)F)c1 [Alpelisib] (partner 2 µM)
How it was run: as §1

[4] = compound: CN(C)CC1=CC(=CC=C1)N=C(C2=CC=CC=C2)C3=C(NC4=C3C=CC(=C4)C(=O)N(C)C)O + N=C(N)NC(=N)NCCc1ccccc1 [Phenformin] (partner 250 µM)
How it was run: as §1

Row | Cell Line | relative viability ([1]; first compound 0.08 µM) | relative viability ([1]; first compound 0.253 µM) | relative viability ([1]; first compound 0.8 µM) | relative viability ([1]; first compound 2.53 µM) | relative viability ([1]; first compound 8 µM) | relative viability ([2]; first compound 0.08 µM) | relative viability ([2]; first compound 0.253 µM) | relative viability ([2]; first compound 0.8 µM) | relative viability ([2]; first compound 2.53 µM) | relative viability ([2]; first compound 8 µM) | relative viability ([3]; first compound 0.08 µM) | relative viability ([3]; first compound 0.253 µM) | relative viability ([3]; first compound 0.8 µM) | relative viability ([3]; first compound 2.53 µM) | relative viability ([3]; first compound 8 µM) | relative viability ([4]; first compound 0.08 µM) | relative viability ([4]; first compound 0.253 µM) | relative viability ([4]; first compound 0.8 µM) | relative viability ([4]; first compound 2.53 µM) | relative viability ([4]; first compound 8 µM)
1 | LK-2 | 0.52 | 0.482 | 0.591 | 0.53 | 0.473 | 0.457 | 0.416 | 0.426 | 0.493 | 0.341 | 1.2 | 0.924 | 0.897 | 0.928 | 0.881 | 0.511 | 0.475 | 0.306 | 0.374 | 0.244
2 | LOU-NH91 | 0.532 | 0.512 | 0.481 | 0.511 | 0.512 | 0.762 | 0.801 | 0.713 | 0.719 | 0.703 | 0.743 | 0.72 | 0.577 | 0.718 | 0.696 | 0.697 | 0.652 | 0.548 | 0.714 | 0.699
3 | LU99A | 0.322 | 0.33 | 0.366 | 0.301 | 0.305 | 0.45 | 0.335 | 0.337 | 0.24 | 0.299 | 0.486 | 0.579 | 0.497 | 0.559 | 0.364 | 0.737 | 0.874 | 0.862 | 0.655 | 0.757
4 | LXF-289 | 0.778 | 0.793 | 0.794 | 0.706 | 0.731 | 1.12 | 1.05 | 1.11 | 0.894 | 1.08 | 1.04 | 1 | 0.966 | 0.971 | 0.941 | 0.499 | 0.489 | 0.518 | 0.518 | 0.473
5 | NCI-H23 | 0.45 | 0.42 | 0.565 | 0.512 | 0.475 |  | 0.243 | 0.255 | 0.324 | 0.319 | 0.705 | 0.607 | 0.754 | 0.6 | 0.573 | 0.796 | 0.781 | 0.787 | 0.764 | 0.691
6 | NCI-H322M | 0.499 | 0.742 | 0.388 | 0.496 | 0.701 | 0.53 | 0.599 | 0.53 | 0.448 | 0.588 | 0.768 | 0.714 | 0.695 | 0.797 | 0.708 | 0.685 | 0.801 | 0.669 | 0.631 | 0.551
7 | NCI-H358 | 0.384 | 0.28 | 0.34 | 0.331 | 0.347 | 0.635 | 0.463 | 0.419 | 0.471 | 0.485 | 0.743 | 0.814 | 0.766 | 0.718 | 0.606 | 0.349 | 0.343 | 0.201 | 0.303 | 0.313
